Measured values from ChEMBL document CHEMBL5532639, “Heterocyclic pyrimidine derivatives as promising antibacterial agents” (Eur J Med Chem, 2023).
Converted amounts (≈) assume the structure as drawn.

Experiments:
Salmonella typhimurium [1] = assay: Antibacterial activity against Salmonella typhimurium DT104 assessed as reduction in bacterial growth inhibition measured after 24 hrs by Mueller Hinton Agar dilution method; format: functional, Salmonella enterica subsp. enterica serovar Typhimurium; details: Salmonella enterica
Vibrio parahaemolyticus = assay: Antibacterial activity against Vibrio parahaemolyticus assessed as reduction in bacterial growth inhibition measured after 24 hrs by Mueller Hinton Agar dilution method; format: functional
[2] = system: Salmonella enterica subsp. enterica serovar Paratyphi B; assay: Antibacterial activity against Salmonella paratyphi B CICC 21495 assessed as reduction in […]; format: functional; details: time lower 48 hrs
Edwardsiella tarda = assay: Antimicrobial activity against Edwardsiella tarda assessed as inhibition of microbial growth incubated for 18 hrs by CLSI protocol based Mueller-Hinton broth assay; format: functional
Vibrio cholerae [3] = assay: Antibacterial activity against Vibrio cholerae assessed as inhibition of bacterial growth incubated for 24 hrs by broth microdilution method; format: functional
Staphylococcus aureus [4] = assay: Antimicrobial activity against Staphylococcus aureus assessed as inhibition of microbial growth incubated for 18 hrs by CLSI protocol based Mueller-Hinton broth assay; format: functional
Escherichia coli [5] = assay: Antimicrobial activity against Escherichia coli assessed as inhibition of microbial growth incubated for 18 hrs by CLSI protocol based Mueller-Hinton broth assay; format: functional
Vibrio cholerae [6] = assay: Antibacterial activity against Vibrio cholerae measured after 18 to 20 hrs by broth microdilution method; format: functional; details: time 18-20 hrs
Enterococcus faecalis = assay: Antimicrobial activity against Enterococcus faecalis assessed as inhibition of microbial growth incubated for 18 hrs by CLSI protocol based Mueller-Hinton broth assay; format: functional
Salmonella typhimurium [7] = assay: Antimicrobial activity against Salmonella typhimurium DT104 assessed as inhibition of microbial growth incubated for 18 hrs by CLSI protocol based Mueller-Hinton broth assay; format: functional, Salmonella enterica subsp. enterica serovar Typhimurium; details: Salmonella enterica
Pseudomonas aeruginosa [8] = assay: Antimicrobial activity against Pseudomonas aeruginosa assessed as inhibition of microbial growth incubated for 18 hrs by CLSI protocol based Mueller-Hinton broth assay; format: functional
Klebsiella pneumoniae [9] = assay: Antimicrobial activity against Klebsiella pneumoniae assessed as inhibition of microbial growth incubated for 18 hrs by CLSI protocol based Mueller-Hinton broth assay; format: functional
[10] = system: Staphylococcus epidermidis; assay: Antimicrobial activity against Staphylococcus epidermidis assessed as inhibition of microbial growth incubated for 18 hrs by CLSI protocol based Mueller-Hinton broth assay; format: functional
Salmonella enterica = assay: Antimicrobial activity against Salmonella enterica assessed as inhibition of microbial growth incubated for 18 hrs by CLSI protocol based Mueller-Hinton broth assay; format: functional
Aeromonas hydrophila = assay: Antibacterial activity against Aeromonas hydrophila assessed as inhibition of microbial growth incubated for 24 hrs by CLSI protocol based Mueller-Hinton broth assay; format: functional
Vibrio cholerae [11] = assay: Antibacterial activity against Vibrio cholerae assessed as reduction in bacterial growth measured after 18 to 20 hrs by broth microdilution method; format: functional; details: time 18-20 hrs
Bacillus subtilis [12] = assay: Antibacterial activity against Bacillus subtilis assessed as reduction in bacterial growth incubated for 24 hrs by CLSI protocol based Mueller-Hinton broth assay; format: functional
Shigella sonnei = assay: Antibacterial activity against Shigella sonnei assessed as inhibition of bacterial growth measured after 18 to 20 hrs by broth microdilution method; format: functional; details: time 18-20 hrs
Shigella boydii = assay: Antibacterial activity against Shigella boydii assessed as inhibition of bacterial growth measured after 18 to 20 hrs by broth microdilution method; format: functional; details: time 18-20 hrs
Plesiomonas shigelloides = assay: Antibacterial activity against Plesiomonas shigelloides assessed as inhibition of bacterial growth measured after 18 to 20 hrs by broth microdilution method; format: functional; details: time 18-20 hrs
Providencia rettgeri = assay: Antibacterial activity against Providencia rettgeri assessed as bacterial growth inhibition incubated for 18 hrs by CLSI protocol based Mueller-Hinton broth assay; format: functional
Shigella flexneri = assay: Antibacterial activity against Shigella flexneri assessed as inhibition of bacterial growth incubated for 24 hrs by broth microdilution method; format: functional
Proteus vulgaris = assay: Antimicrobial activity against Proteus vulgaris assessed as microbial growth inhibition incubated for 24 hrs by broth microdilution method; format: functional
Enterobacter sp. = assay: Antibacterial activity against Enterobacter sp. assessed as inhibition of bacterial growth; format: functional
Morganella morganii [13] = assay: Antibacterial activity against Morganella morganii UM869 incubated for 16 to 18 hrs by broth microdilution method; format: functional; details: time 16-18 hrs
Citrobacter freundii = assay: Antibacterial activity against multidrug-resistant Citrobacter freundii assessed as bacterial growth inhibition incubated for 20 to 22 hrs by CLSI based analysis; format: functional; details: time 20-22 hrs
Morganella morganii [14] = assay: Antibacterial activity against Morganella morganii UM573 assessed as bacterial growth inhibition incubated for 20 to 22 hrs by CLSI based analysis; format: functional; details: time 20-22 hrs
Salmonella paratyphi = assay: Antibacterial activity against Salmonella paratyphi A CICC 21501 incubated overnight by standard microtiter dilution method; format: functional, Salmonella enterica subsp. enterica serovar Paratyphi A; details: Salmonella enterica
Staphylococcus aureus [15] = assay: Antibacterial activity against Staphylococcus aureus assessed as bacterial growth inhibition; format: functional
Escherichia coli [16] = assay: Antibacterial activity against Escherichia coli assessed as reduction in bacterial growth by broth microdilution method; format: functional
Pseudomonas aeruginosa [17] = assay: Antibacterial activity against Pseudomonas aeruginosa assessed as reduction in microbial growth by broth microdilution method; format: functional
Escherichia coli [18] = assay: Antibacterial activity Escherichia coli assessed as reduction in bacterial growth; format: functional
Pseudomonas aeruginosa [19] = assay: Antibacterial activity against Pseudomonas aeruginosa assessed as reduction in microbial growth after 18 hrs by MTT based broth dilution method; format: functional
Klebsiella pneumoniae [20] = assay: Antibacterial activity against Klebsiella pneumoniae assessed as reduction in bacterial growth by broth microdilution method; format: functional
Bacillus subtilis [21] = assay: Antibacterial activity against Bacillus subtilis assessed as reduction in bacterial cell viability by well plate method; format: functional
[22] = system: Staphylococcus epidermidis; assay: Antibacterial activity against Staphylococcus epidermidis assessed as reduction in microbial growth; format: functional
Staphylococcus aureus [23] = assay: Antibacterial activity against Staphylococcus aureus assessed as bacterial growth inhibition by measuring zone of inhibition at 50 ug/ml by agar cup diffusion assay; format: functional; details: read-out: IZ
Escherichia coli [24] = assay: Antibacterial activity against Escherichia coli assessed as bacterial growth inhibition by measuring zone of inhibition at 50 ug/ml by agar cup diffusion assay; format: functional; details: read-out: IZ
Salmonella typhimurium [25] = assay: Antibacterial activity against Salmonella typhimurium DT104 assessed as bacterial growth inhibition by measuring zone of inhibition at 50 ug/ml by agar cup diffusion assay; format: functional, Salmonella enterica subsp. enterica serovar Typhimurium; details: Salmonella enterica, read-out: IZ
Bacillus subtilis [26] = assay: Antibacterial activity against Bacillus subtilis assessed as bacterial growth inhibition by measuring zone of inhibition at 50 ug/ml by agar cup diffusion assay; format: functional; details: read-out: IZ
Salmonella typhimurium [27] = assay: Antimicrobial activity against Salmonella typhimurium DT104 assessed as diameter of inhibition zone incubated for 24 hrs by well diffusion assay; format: functional, Salmonella enterica subsp. enterica serovar Typhimurium
Micrococcus luteus = assay: Antimicrobial activity against Micrococcus luteus assessed as diameter of inhibition zone incubated for 24 hrs by well diffusion assay; format: functional
Pseudomonas aeruginosa [28] = assay: Antimicrobial activity against Pseudomonas aeruginosa assessed as diameter of inhibition zone incubated for 24 hrs by well diffusion assay; format: functional
Bacillus subtilis [29] = assay: Antimicrobial activity against Bacillus subtilis assessed as diameter of inhibition zone incubated for 24 hrs by well diffusion assay; format: functional
Escherichia coli [30] = assay: Antibacterial activity against Escherichia coli assessed as bacterial growth inhibition incubated for 18 hrs by CLSI protocol based Mueller-Hinton broth assay; format: functional
Pseudomonas aeruginosa [31] = assay: Antibacterial activity against Pseudomonas aeruginosa assessed as reduction in bacterial growth by broth microdilution method; format: functional
Staphylococcus aureus [32] = assay: Antibacterial activity against Staphylococcus aureus assessed as reduction in microbial growth by CLSI based broth microdilution method; format: functional
Streptococcus pyogenes = assay: Antibacterial activity against Streptococcus pyogenes assessed as reduction in microbial growth by CLSI based broth microdilution method; format: functional
Streptococcus pneumoniae [33] = assay: Antibacterial activity against Streptococcus pneumoniae; format: functional
Streptococcus pneumoniae [34] = assay: Antimicrobial activity against Streptococcus […] assessed as bacterial growth inhibition by measuring zone of inhibition at 50 ug/ml by agar cup diffusion assay; format: functional; details: read-out: IZ
Bacillus subtilis [35] = assay: Antimicrobial activity against Bacillus subtilis RCMB 010069 assessed as bacterial growth inhibition by measuring zone of inhibition at 50 ug/ml by agar cup diffusion assay; format: functional; details: read-out: IZ
Bacillus subtilis [36] = assay: Antibacterial activity against Bacillus subtilis; format: functional
Staphylococcus aureus [37] = assay: Antibacterial activity against Staphylococcus aureus; format: functional
Salmonella typhimurium [38] = assay: Antibacterial activity against Salmonella typhimurium DT104 assessed as reduction in bacterial growth; format: functional, Salmonella enterica subsp. enterica serovar Typhimurium; details: Salmonella enterica
Escherichia coli [39] = assay: Antibacterial activity against Escherichia coli ATCC 25922 assessed as bacterial growth inhibition; format: functional
Staphylococcus aureus [40] = assay: Antibacterial activity against Staphylococcus aureus ATCC 3750 assessed as reduction in bacterial growth; format: functional
Bacillus subtilis [41] = assay: Antibacterial activity against Bacillus subtilis 6633 assessed as reduction in bacterial growth; format: functional
Pneumocystis carinii = assay: Antifungal activity against Pneumocystis carinii assessed as reduction in fungal growth; format: functional, organism-based
Toxoplasma gondii = assay: Antiparasitic activity against Toxoplasma gondii assessed as parasitic growth inhibition; format: functional, organism-based
Bacillus subtilis [42] = assay: Antibacterial activity against Bacillus subtilis ATCC 465 assessed as reduction in bacterial growth measured after 24 hrs by Mueller-Hinton broth assay; format: functional
Pseudomonas aeruginosa [43] = assay: Antibacterial activity against Pseudomonas aeruginosa ATCC 85327 assessed as reduction in bacterial growth measured after 24 hrs by Mueller-Hinton broth assay; format: functional
Pseudomonas aeruginosa [44] = assay: Antibacterial activity against Pseudomonas aeruginosa; format: functional
Bacillus subtilis [45] = assay: Antibacterial activity against Bacillus subtilis assessed as reduction in microbial growth by measuring zone of inhibition; format: functional

Cc1ccc(-c2cc(-c3ccc(Cl)cc3)nc(/N=C3/C(=O)N(CNCN4CCOCC4)c4ccc(Br)cc43)n2)cc1
MIC (Salmonella typhimurium [1]): 156 µg/mL (≈ 247 µM)
MIC (Vibrio parahaemolyticus): 78.1 µg/mL (≈ 124 µM)
MIC [2]: 39.1 µg/mL (≈ 61.8 µM)
MIC (Edwardsiella tarda): 39.1 µg/mL
MIC (Vibrio cholerae [3]): 39.1 µg/mL (≈ 61.8 µM)
MIC (Staphylococcus aureus [4]): 78.1 µg/mL
MIC (Escherichia coli [5]): 2.44 µg/mL
MIC (Vibrio cholerae [6]): 0.3 µg/mL (≈ 0.475 µM)
MIC (Enterococcus faecalis): 1.22 µg/mL
MIC (Salmonella typhimurium [7]): 19.5 µg/mL
MIC (Pseudomonas aeruginosa [8]): 312 µg/mL
MIC (Klebsiella pneumoniae [9]): 312 µg/mL
MIC [10]: 625 µg/mL
MIC (Salmonella enterica): 9.76 µg/mL
MIC (Aeromonas hydrophila): 312 µg/mL
MIC (Vibrio cholerae [11]): 9.76 µg/mL (≈ 15.4 µM)
MIC (Bacillus subtilis [12]): 9.76 µg/mL (≈ 15.4 µM)
MIC (Shigella sonnei): 312 µg/mL (≈ 494 µM)
MIC (Shigella boydii): 9.76 µg/mL (≈ 15.4 µM)
MIC (Plesiomonas shigelloides): 4.88 µg/mL (≈ 7.72 µM)
MIC (Providencia rettgeri): 39.1 µg/mL (≈ 61.8 µM)
MIC (Shigella flexneri): 312 µg/mL (≈ 494 µM)
MIC (Proteus vulgaris): 312 µg/mL (≈ 494 µM)
MIC (Enterobacter sp.): 156 µg/mL (≈ 247 µM)
MIC (Morganella morganii [13]): 156 µg/mL (≈ 247 µM)
MIC (Citrobacter freundii): 39.1 µg/mL (≈ 61.8 µM)
MIC (Morganella morganii [14]): 156 µg/mL (≈ 247 µM)
MIC (Salmonella paratyphi): 39.1 µg/mL (≈ 61.8 µM)

COc1ccc(C2C3=C(CCCC3=O)Oc3nc(-c4cc5ccccc5oc4=O)[nH]c(=O)c32)cc1OC (stereo not drawn)
MIC (Staphylococcus aureus [15]): 50 µg/mL (≈ 100 µM)
MIC (Escherichia coli [16]): 12.5 µg/mL (≈ 25.1 µM)
MIC (Pseudomonas aeruginosa [17]): 50 µg/mL
MIC (Escherichia coli [18]): 50 µg/mL (≈ 100 µM)
MIC (Pseudomonas aeruginosa [19]): 50 µg/mL
MIC (Klebsiella pneumoniae [20]): 50 µg/mL (≈ 100 µM)
MIC (Bacillus subtilis [21]): 50 µg/mL (≈ 100 µM)
MIC [22]: 100 µg/mL

CN(C)[C@@H]1C(O)=C(C(N)=O)C(=O)[C@@]2(O)C(O)=C3C(=O)c4c(O)cccc4[C@@](C)(O)[C@H]3C[C@@H]12 [TETRACYCLINE]
zone of inhibition at 50 µg/mL (Staphylococcus aureus [23]): 19 mm
zone of inhibition at 50 µg/mL (Escherichia coli [24]): 15 mm
zone of inhibition at 50 µg/mL (Salmonella typhimurium [25]): 24 mm
zone of inhibition at 50 µg/mL (Bacillus subtilis [26]): 21 mm
inhibition zone (IZ) (Salmonella typhimurium [27]): 8 mm
inhibition zone (IZ) (Micrococcus luteus): 16 mm
inhibition zone (IZ) (Pseudomonas aeruginosa [28]): 18 mm
inhibition zone (IZ) (Bacillus subtilis [29]): 14 mm

CC1(C)S[C@@H]2[C@H](NC(=O)[C@H](N)c3ccccc3)C(=O)N2[C@H]1C(=O)O [AMPICILLIN]
MIC (Escherichia coli [30]): 100 µg/mL (≈ 286 µM)
MIC (Pseudomonas aeruginosa [31]): 100 µg/mL (≈ 286 µM)
MIC (Staphylococcus aureus [32]): 250 µg/mL
MIC (Streptococcus pyogenes): 100 µg/mL
MIC (Streptococcus pneumoniae [33]): 0.98 µg/mL (≈ 2.8 µM)
zone of inhibition at 50 µg/mL (Streptococcus pneumoniae [34]): 23.8 mm
zone of inhibition at 50 µg/mL (Bacillus subtilis [35]): 32.4 mm
MIC (Bacillus subtilis [36]): 0.49 µg/mL (≈ 1.4 µM)
MIC (Staphylococcus aureus [37]): 0.49 µg/mL (≈ 1.4 µM)
MIC (Salmonella typhimurium [38]): 49 µg/mL (≈ 140 µM)
MIC (Escherichia coli [39]): 4 µg/mL (≈ 11.4 µM)
MIC (Staphylococcus aureus [40]): 50 µg/mL (≈ 143 µM)
MIC (Bacillus subtilis [41]): 4 µg/mL (≈ 11.4 µM)

COc1ccc(-c2cc(C#Cc3ccc(C(=O)O)cc3)cc(Cc3cnc(N)nc3N)c2)cc1OC
IC50 (Pneumocystis carinii): 1200 nM
IC50 (Toxoplasma gondii): 420 nM

GENTAMICIN
MIC (Bacillus subtilis [42]): 0.125 µg/mL
MIC (Pseudomonas aeruginosa [43]): 1 µg/mL
MIC (Pseudomonas aeruginosa [44]): 0.98 µg/mL
inhibition zone (IZ) (Bacillus subtilis [45]): 24 mm
